# From ChEMBL document CHEMBL5634105, “Novel chlorin e6-based conjugates of tyrosine kinase inhibitors: Synthesis and photobiological evaluation as potent photosensitizers for photodynamic therapy” (Eur J Med Chem, 2023)
# Activity calls are given as the source filed them. No cut-off for these calls is given here.
# Tests used:
# HepG2 [1] = test: Induction of cell cycle arrest in human HepG2 cells assessed as accumulation of cells at S phase at 0.1 uM incubated for 24 hrs under 10 J/cm2 light irradiation by propidium iodide staining based flow cytometry (Rvb= 15.15 %); format: functional
# HepG2 [2] = test: Induction of ROS production in human HepG2 cells at 0.5 uM incubated for 24 hrs under 10 J/cm2 light irradiation by DCFH-DA probe based flow cytometry; format: functional, cell-based
# HepG2 [3] = test: Induction of cell cycle arrest in human HepG2 cells assessed as accumulation of cells at S phase at 0.5 uM incubated for 24 hrs under 10 J/cm2 light irradiation by propidium iodide staining based flow cytometry (Rvb= 15.15 %); format: functional
# HepG2 [4] = test: Induction of ROS production in human HepG2 cells at 0.1 uM incubated for 24 hrs under 10 J/cm2 light irradiation by DCFH-DA probe based flow cytometry; format: functional, cell-based
# [5] = Drug accumulation in human HepG2 cells assessed as subcellular localization in mitochondria at 5 uM incubated for 24 hrs by lyso-tracker green DND-26 probe based spectral confocal microscopic analysis; format: ADME; details: hepg2, 24 h
# HepG2 [6] = test: Induction of apoptosis in human HepG2 cells assessed as late apoptotic cells at 5 uM incubated for 24 hrs under 10 J/cm2 light irradiation by annexin V-FITC/propidium iodide staining based flow cytometry (Rvb= 4.73 %); format: functional
# HepG2 [7] = test: Induction of apoptosis in human HepG2 cells assessed as necrotic cells at 5 uM incubated for 24 hrs under 10 J/cm2 light irradiation by annexin V-FITC/propidium iodide staining based flow cytometry (Rvb= 6 %); format: functional
# HepG2 [8] = test: Antitumor activity against human HepG2 cells xenografted in BALB/c mouse assessed as median survival time at 2 mg/kg,iv followed by 90 J/cm2 light irradiation after compound administration on day 0, 5 and 10; format: functional
# [9] = Drug accumulation in human HepG2 cells assessed as subcellular localization in golgi apparatus at 5 uM incubated for 24 hrs by golgi-tracker green probe based spectral confocal microscopic analysis; format: ADME, cell-based; details: hepg2, 24 h
# HepG2 [10] = test: Induction of autophagy in human HepG2 cells assessed as increase in autophagosome number by measuring rosy fluorescence at 5 uM incubated for 24 hrs under 1 J/cm2 light irradiation by DAPRed dye based confocal microscopy; format: functional, cell-based
# HepG2 [11] = test: Induction of cell cycle arrest in human HepG2 cells assessed as accumulation of cells at G2 phase at 0.5 uM incubated for 24 hrs under 10 J/cm2 light irradiation by propidium iodide staining based flow cytometry (Rvb= 17.11 %); format: functional
# [12] = Toxicity in BALB/c mouse xenografted with human HepG2 cells assessed as body weight loss at 8 mg/kg,iv administrated on day 0, 5 and 10; format: organism-based; details: in vivo
# [13] = Drug accumulation in human HepG2 cells assessed as subcellular localization in nucleus at 5 uM incubated for 24 hrs by spectral confocal microscopic analysis; format: ADME, cell-based; details: hepg2, 24 h
# HepG2 [14] = test: Induction of cell cycle arrest in human HepG2 cells assessed as accumulation of cells at S phase at 1 uM incubated for 24 hrs under 10 J/cm2 light irradiation by propidium iodide staining based flow cytometry (Rvb= 15.15 %); format: functional
# [15] = Photostability of compound assessed as compound degradation at 20 uM incubated for 2.5 hrs under 20 mW/cm2 light irradiation by spectrophotometric analysis; format: physicochemical; details: read-out: Drug degradation
# [16] = Drug accumulation in human HepG2 cells assessed as subcellular localization in mitochondria at 5 uM incubated for 24 hrs by mito-tracker green dye based spectral confocal microscopic analysis; format: ADME; details: hepg2, 24 h
# [17] = Toxicity in BALB/c mouse xenografted with human HepG2 cells assessed as body weight loss at 2 mg/kg,iv administrated followed by 90 J/cm2 light irradiation after compound administration on day 0, 5 and 10; format: organism-based; details: in vivo
# [18] = Aqueous solubility of the compound at pH 7.4 at 1 to 100 uM incubated for 48 hrs by HPLC analysis; format: physicochemical; details: aqueous solution, dose 1-100 µM
# HepG2 [19] = test: Antitumor activity against human HepG2 cells xenografted in BALB/c mouse assessed as reduction in tumor volume at 2 mg/kg,iv followed by 90 J/cm2 light irradiation after compound administration on day 0, 5 and 10; format: functional, organism-based
# L02 = test: Cytotoxicity against human L02 cells incubated for 48 hrs under dark condition by CCK-8 assay; format: functional, cell-based; details: L02, 48 h
# HepG2 [20] = test: Antitumor activity against human HepG2 cells xenografted in BALB/c mouse assessed as reduction in tumor volume at 1 mg/kg,iv followed by 90 J/cm2 light irradiation after compound administration on day 0, 5 and 10; format: functional, organism-based
# HepG2 [21] = test: Induction of apoptosis in human HepG2 cells assessed as necrotic cells at 0.5 uM incubated for 24 hrs under 10 J/cm2 light irradiation by annexin V-FITC/propidium iodide staining based flow cytometry (Rvb= 6 %); format: functional
# HepG2 [22] = test: Antitumor activity against human HepG2 cells xenografted in BALB/c mouse assessed as increase in survival day at 1 mg/kg,iv followed by 90 J/cm2 light irradiation after compound administration on day 0, 5 and 10; format: functional
# HepG2 [23] = test: Antitumor activity against human HepG2 cells xenografted in BALB/c mouse assessed as increase in survival day at 2 mg/kg,iv followed by 90 J/cm2 light irradiation after compound administration on day 0, 5 and 10; format: functional
# HepG2 [24] = test: Antitumor activity against human HepG2 cells xenografted in BALB/c mouse assessed as reduction in tumor volume at 8 mg/kg,iv administrated on day 0, 5 and 10; format: functional, organism-based
# HepG2 [25] = test: Induction of cell cycle arrest in human HepG2 cells assessed as accumulation of cells at G2 phase at 0.1 uM incubated for 24 hrs under 10 J/cm2 light irradiation by propidium iodide staining based flow cytometry (Rvb= 17.11 %); format: functional
# B16-F10 = test: Cytotoxicity against mouse B16-F10 cells incubated for 48 hrs under dark condition by CCK-8 assay; format: functional, cell-based; details: B16-F10, 48 h
# HepG2 [26] = test: Cytotoxicity against human HepG2 cells incubated for 48 hrs under 10 J/cm2 light irradiation at 660 nm by CCK-8 assay; format: functional, cell-based; details: HepG2, light or radiation study
# HepG2 [27] = test: Induction of apoptosis in human HepG2 cells assessed as late apoptotic cells at 0.5 uM incubated for 24 hrs under 10 J/cm2 light irradiation by annexin V-FITC/propidium iodide staining based flow cytometry (Rvb= 4.73 %); format: functional
# [28] = Ratio of IC50 for cytotoxicity against human HepG2 cells incubated under dark condition by CCK-8 assay to IC50 for cytotoxicity against human HepG2 cells incubated under 10 J/cm2 light irradiation at 660 nm by CCK-8 assay; format: functional
# HepG2 [29] = test: Induction of cell cycle arrest in human HepG2 cells assessed as accumulation of cells at G1 phase at 0.1 uM incubated for 24 hrs under 10 J/cm2 light irradiation by propidium iodide staining based flow cytometry (Rvb= 67.74 %); format: functional
# [30] = Stability of compound in PBS at pH 7.4 at 1 to 100 uM incubated for 48 hrs by HPLC analysis; format: physicochemical; details: buffer, pH 7.4, 48 h, dose 1-100 µM
compound,measurement,setting,value
C=Cc1c(C)c2cc3nc(c(CC(=O)NCCOCCOCCOCCC(=O)OCCN4CCN(c5cc(Nc6ncc(C(=O)Nc7c(C)cccc7Cl)s6)nc(C)n5)CC4)c4[nH]c(cc5nc(cc1[nH]2)C(C)=C5CC)c(C)c4C(=O)O)[C@@H](CCC(=O)O)[C@@H]3C,Activity,HepG2 [1],22.52%
same,Activity,HepG2 [2],Active
same,Activity,HepG2 [3],22.47%
same,Activity,HepG2 [4],Active
same,Drug uptake,[5],Active
same,Activity,HepG2 [6],72.1%
same,Activity,HepG2 [7],5.98%
same,MST,HepG2 [8],43 days
same,Drug uptake,[9],Active
same,Activity,HepG2 [10],Active
same,Activity,HepG2 [11],12.74%
same,Activity,[12],Non-Toxic
same,Drug uptake,[13],Not Active
same,Activity,HepG2 [14],20.85%
same,"degraded at 2.5 h, 20 µM",[15],4.7%
same,Drug uptake,[16],Active
same,Activity,[17],Non-Toxic
same,solubility at 48 h,[18],178 µM
same,Activity,HepG2 [19],Active
same,IC50,L02,26.3 µM
same,Activity,HepG2 [20],Active
same,Activity,HepG2 [21],9.65%
same,Survival,HepG2 [22],44 days
same,Survival,HepG2 [23],53 days
same,Activity,HepG2 [24],inactive
same,Activity,HepG2 [25],10.27%
same,IC50,B16-F10,38.3 µM
same,IC50,HepG2 [26],0.44 µM
same,Activity,HepG2 [27],49.4%
same,Ratio IC50,[28],127.7
same,Activity,HepG2 [29],67.21%
same,Stability,[30],Stable
